Publication PMC7584652 (Nature Communications, 2020)

What was measured:
[1] = molecular target: Gmk (Bacillus anthracis, UniProt Q81WG7); type: binding
[2] = molecular target: Hpt1 (Bacillus anthracis, UniProt A0A6L7HDS1); settings: labelled compound ([5′-α-32P]); 10 mM Tris pH 7.5, 100 mM NaCl, 5 mM MgCl2, room temperature
[3] = molecular target: Xpt (Bacillus anthracis, UniProt Q81SQ5); settings: labelled compound ([5′-α-32P]); 10 mM Tris pH 7.5, 100 mM NaCl, 5 mM MgCl2, room temperature
[4] = molecular target: T1, Rel (RelA) (Bacillus subtilis, UniProt O54408); assay: […] TLC hydrolysis time course; type: biochemical; settings: 200 nM enzyme, 100 μM substrate, 25 mM Tris-HCl pH 7.5, 1 mM MnCl2, 37 °C
T1 construct: purified

[5] = molecular target: Obg (Bacillus anthracis, UniProt Q81LF0); assay: biochemical
[6] = molecular target: Der (Bacillus anthracis, UniProt Q81SW9); settings: labelled compound ([5′-α-32P]); 10 mM Tris pH 7.5, 100 mM NaCl, 5 mM MgCl2, room temperature
[7] = molecular target: T2, translation elongation factor G (EF-G) (Bacillus anthracis, UniProt Q81VT3); assay: biochemical
T2 construct: gene fusA

[8] = substrate: Nc1nc2c(ncn2[C@@H]2O[C@H](COP(=O)(O)OP(=O)(O)O)[C@@H](OP(=O)(O)OP(=O)(O)O)[C@H]2O)c(=O)[nH]1; assay: purified protein; settings: 100 nM enzyme, 40 mM Tris-HCl pH 7.5, 100 mM NaCl, 10 mM MgCl2, 37 °C, Hill n fixed to 1
[9] = substrate: Nc1nc2c(ncn2[C@@H]2O[C@H](COP(=O)(O)OP(=O)(O)OP(=O)(O)O)[C@@H](OP(=O)(O)OP(=O)(O)O)[C@H]2O)c(=O)[nH]1; assay: purified protein; settings: 100 nM enzyme, 40 mM Tris-HCl pH 7.5, 100 mM NaCl, 10 mM MgCl2, 37 °C, cooperative, fitted with Hill equation

T1 sequence (O54408 whole entry): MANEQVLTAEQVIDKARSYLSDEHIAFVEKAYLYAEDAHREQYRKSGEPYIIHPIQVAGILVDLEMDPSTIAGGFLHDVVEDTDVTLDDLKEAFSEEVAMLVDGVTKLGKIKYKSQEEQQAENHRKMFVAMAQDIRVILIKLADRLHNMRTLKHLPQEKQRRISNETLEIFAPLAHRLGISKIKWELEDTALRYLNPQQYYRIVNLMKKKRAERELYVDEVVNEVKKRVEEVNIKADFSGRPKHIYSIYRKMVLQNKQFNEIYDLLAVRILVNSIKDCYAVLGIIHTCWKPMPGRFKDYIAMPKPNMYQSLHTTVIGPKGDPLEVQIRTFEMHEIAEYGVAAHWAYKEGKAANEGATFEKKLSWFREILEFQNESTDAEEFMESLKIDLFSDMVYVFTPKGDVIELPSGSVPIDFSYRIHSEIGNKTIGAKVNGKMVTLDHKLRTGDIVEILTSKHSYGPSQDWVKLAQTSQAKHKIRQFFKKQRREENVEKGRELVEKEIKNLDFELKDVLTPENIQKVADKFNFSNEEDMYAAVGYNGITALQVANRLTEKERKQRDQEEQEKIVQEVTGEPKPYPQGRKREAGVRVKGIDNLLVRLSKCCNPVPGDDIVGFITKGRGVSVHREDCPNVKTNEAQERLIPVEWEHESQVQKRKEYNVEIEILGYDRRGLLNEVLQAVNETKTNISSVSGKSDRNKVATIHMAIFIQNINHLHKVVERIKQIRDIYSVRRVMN
Sequence of Obg (Q81LF0 whole entry, looked up): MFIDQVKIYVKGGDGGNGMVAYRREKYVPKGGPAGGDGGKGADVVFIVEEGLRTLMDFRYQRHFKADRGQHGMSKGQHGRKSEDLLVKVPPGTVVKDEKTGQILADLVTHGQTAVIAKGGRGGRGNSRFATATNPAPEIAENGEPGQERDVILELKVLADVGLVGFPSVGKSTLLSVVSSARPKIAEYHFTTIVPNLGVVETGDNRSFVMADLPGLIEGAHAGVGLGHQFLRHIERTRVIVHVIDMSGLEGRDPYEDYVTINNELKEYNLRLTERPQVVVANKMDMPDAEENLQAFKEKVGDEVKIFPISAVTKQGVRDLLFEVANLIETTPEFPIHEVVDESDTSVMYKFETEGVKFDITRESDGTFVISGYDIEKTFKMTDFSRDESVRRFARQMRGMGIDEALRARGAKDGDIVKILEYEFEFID
T2 sequence (Q81VT3 whole entry, looked up): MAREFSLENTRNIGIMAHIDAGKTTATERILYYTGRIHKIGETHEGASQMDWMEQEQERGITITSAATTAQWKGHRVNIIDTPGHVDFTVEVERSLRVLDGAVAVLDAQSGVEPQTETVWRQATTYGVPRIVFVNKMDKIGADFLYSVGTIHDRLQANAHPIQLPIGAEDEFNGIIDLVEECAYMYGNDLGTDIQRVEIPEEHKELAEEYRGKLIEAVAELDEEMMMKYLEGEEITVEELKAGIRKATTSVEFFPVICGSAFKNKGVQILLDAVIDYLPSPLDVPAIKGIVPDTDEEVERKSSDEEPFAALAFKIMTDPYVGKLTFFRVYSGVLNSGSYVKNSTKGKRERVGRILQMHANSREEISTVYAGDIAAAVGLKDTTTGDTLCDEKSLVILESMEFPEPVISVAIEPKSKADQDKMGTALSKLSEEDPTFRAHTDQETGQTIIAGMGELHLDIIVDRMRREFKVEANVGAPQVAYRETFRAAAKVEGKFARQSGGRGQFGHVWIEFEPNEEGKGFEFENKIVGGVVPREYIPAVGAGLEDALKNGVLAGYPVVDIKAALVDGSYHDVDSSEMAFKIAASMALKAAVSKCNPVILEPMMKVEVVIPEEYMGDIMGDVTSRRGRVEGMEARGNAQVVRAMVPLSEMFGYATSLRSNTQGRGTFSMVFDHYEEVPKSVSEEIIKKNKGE
Sequence of Xpt (Q81SQ5 whole entry, looked up): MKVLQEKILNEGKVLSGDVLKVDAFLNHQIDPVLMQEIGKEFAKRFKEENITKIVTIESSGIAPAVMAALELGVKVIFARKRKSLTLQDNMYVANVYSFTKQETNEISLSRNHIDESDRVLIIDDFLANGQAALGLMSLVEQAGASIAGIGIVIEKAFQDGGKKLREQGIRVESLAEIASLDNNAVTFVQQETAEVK
Sequence of Gmk (Q81WG7 whole entry, looked up): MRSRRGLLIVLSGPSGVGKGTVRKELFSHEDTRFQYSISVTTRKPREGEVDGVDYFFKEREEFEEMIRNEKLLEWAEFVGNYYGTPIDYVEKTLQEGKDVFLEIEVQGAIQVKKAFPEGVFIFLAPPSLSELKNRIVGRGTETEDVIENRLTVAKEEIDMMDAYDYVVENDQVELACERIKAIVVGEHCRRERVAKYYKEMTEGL
Sequence of Hpt1 (A0A6L7HDS1 1-180): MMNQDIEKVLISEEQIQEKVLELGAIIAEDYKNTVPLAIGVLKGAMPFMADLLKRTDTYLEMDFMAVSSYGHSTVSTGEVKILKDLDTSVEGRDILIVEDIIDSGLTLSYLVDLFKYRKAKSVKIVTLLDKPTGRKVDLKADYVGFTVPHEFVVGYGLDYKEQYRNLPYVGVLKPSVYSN
Sequence of Der (Q81SW9 whole entry, looked up): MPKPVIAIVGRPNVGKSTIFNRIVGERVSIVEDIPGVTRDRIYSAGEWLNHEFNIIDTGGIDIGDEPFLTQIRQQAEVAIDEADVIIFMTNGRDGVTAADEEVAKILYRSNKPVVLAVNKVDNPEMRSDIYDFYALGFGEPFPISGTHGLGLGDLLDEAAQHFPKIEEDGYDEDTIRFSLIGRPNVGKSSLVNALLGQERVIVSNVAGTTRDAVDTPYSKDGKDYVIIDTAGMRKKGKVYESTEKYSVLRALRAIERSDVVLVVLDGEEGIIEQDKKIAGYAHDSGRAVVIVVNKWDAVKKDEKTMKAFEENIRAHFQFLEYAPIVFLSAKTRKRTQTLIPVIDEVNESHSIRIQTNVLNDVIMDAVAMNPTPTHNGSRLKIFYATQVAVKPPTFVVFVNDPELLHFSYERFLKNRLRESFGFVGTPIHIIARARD

With Nc1nc2c(ncn2[C@@H]2O[C@H](COP(=O)(O)O)[C@@H](OP(=O)(O)OP(=O)(O)O)[C@H]2O)c(=O)[nH]1 [pGpp, guanosine-5′-monophosphate-3′-diphosphate] the “DRaCALA, 1 μM purified protein” value [1] was “confirmed strong pGpp binding to guanosine nucleotide synthesis proteins (Hpt1, Gmk, and Xpt)”, the “DRaCALA, 1 μM purified protein” value [2] was “confirmed strong pGpp binding to guanosine nucleotide synthesis proteins (Hpt1, Gmk, and Xpt)” and the “DRaCALA, 1 μM purified protein” value [3] was “confirmed strong pGpp binding to guanosine nucleotide synthesis proteins (Hpt1, Gmk, and Xpt)”. For the same molecule, the “32P TLC hydrolysis time course” value [4] was “pGpp was hydrolyzed more rapidly than (p)ppGpp”.

With Nc1nc2c(ncn2[C@@H]2O[C@H](COP(=O)(O)OP(=O)(O)O)[C@@H](OP(=O)(O)OP(=O)(O)O)[C@H]2O)c(=O)[nH]1 [ppGpp] the Kd [5] was 6 ± 2 µM, the “DRaCALA, 1 μM purified protein” value [6] was “GTPases involved in ribosome biogenesis (HflX, Obg, Der) bind ppGpp but not pGpp” and the Kd [7] was 60 ± 8 µM. The “32P TLC hydrolysis time course” value [4] was “all three nucleotides can be hydrolyzed efficiently by Rel”.

Work on Nc1nc2c(ncn2[C@@H]2O[C@H](COP(=O)(O)OP(=O)(O)OP(=O)(O)O)[C@@H](OP(=O)(O)OP(=O)(O)O)[C@H]2O)c(=O)[nH]1 [pppGpp] yielded a Kd [5] of 48 ± 7 µM and a Kd [7] of 296 ± 50 µM.

B1: NahA (YvcI) (Bacillus subtilis subsp. subtilis str. 168) (protein)
chain: MTYLQRVTNCVLQTDDKVLLLQKPRRGWWVAPGGKMESGESVRDSVIREYREETGIYIINPQLKGVFTFIIKDGDHIVSEWMMFTFVADSYTGQNVSESEEGKLQWHDVNDIQNLPMAPGDGHILDFMMKGQGLLHGTFTYTPEFELLSYRLDPQHIK
For B1, the Km [8] was 7.5 ± 2.3 µM, the kcat [8] was 1.22 ± 0.17 s⁻¹ and the K0.5 [9] was 177.4 ± 0.4 µM. The kcat [9] was 10 ± 0.5 s⁻¹.
